Assays:
[1] = statement, no data shown; cited from earlier work
[2] = Clinical study Part 1, Regimen A: oral plasma PK and absolute bioavailability of 25 mg OCA tablet; format: in vivo, human
Experimental: The objectives of this study were to determine the absolute bioavailability of OCA, and evaluate the absorption, distribution, metabolism, and excretion of OCA in healthy male subjects. In addition, the oral pharmacokinetics (PK) of OCA and carbon-14 ([^14C]-OCA, and intravenous (IV) PK of [^14C]-OCA were evaluated.
The PK objectives of Part 1 were to determine the absolute bioavailability of OCA, to define the intravenous (IV) PK of a microtracer dose of [14C] OCA, and to evaluate the oral PK of OCA. In Part 1, subjects were administered the oral dose (Regimen A: 25 mg OCA tablet), followed by the IV microtracer dose (Regimen B: 100 μg [14C]-OCA) 1 hour 45 minutes after the oral dose administration. The 15 minute IV infusion ended at the estimated tmax for the oral dose (2 hours).
To evaluate the oral PK, plasma concentrations of OCA and its conjugates were measured following an oral dose (Regimen A: 25 mg OCA). OCA was rapidly absorbed; the median tmax was 0.5 hrs. Following Cmax, OCA concentration declined rapidly within 4 hours, consistent with the IV profile of OCA. Subsequent OCA concentrations remained, on average, less than 10% of Cmax up to 72 hours post-dose. A prolonged profile of OCA was observed over the course of 72 hours (FIG. 4). This low level persistence of parent OCA is most likely due to deconjugation of glyco-OCA and tauro-OCA by commensal bacteria in the ileum and colon, followed by reabsorption of OCA.
Mean (SD) plasma concentrations over time of total OCA (the sum of OCA, glyco-OCA, and tauro-OCA) are presented in FIG. 15 (Note: Total OCA calculated as sum of OCA, glyco-OCA, and tauro-OCA concentrations at each time point, glyco-OCA, and tauro-OCA concentrations at each time point expressed as mass equivalents of OCA). Consistent with the [^14C]-OCA results, the maximum exposure of total OCA occurred after a meal, consistent with gallbladder release and enterohepatic recirculation, leading to exposure levels being observed up to 72 hours post-dose. Based on overall exposure of total OCA (AUC0-t), glyco-OCA and tauro-OCA are the primary components of exposure, with minimal contribution (less than 10%) from the parent (OCA).
Absolute bioavailability was determined by the ratio of dose normalized AUC for oral dose/dose normalized AUC for IV dose. […] This relatively low value for bioavailability is consistent with the efficient uptake typical of bile acids into the liver, the primary site of action of OCA. PK results were as expected for a bile acid. OCA is rapidly absorbed in the intestine and taken up in the liver, where it is conjugated with glycine and taurine. Glyco-OCA and tauro-OCA were the primary components of exposure, with minimal contribution from the parent (OCA). Enterohepatic recirculation produced an extended profile, with maximum exposure occurring after meals.

[3] = Clinical study Part 2, Regimen C: plasma PK and metabolite profile after 25 mg oral dose of [14C]-OCA; format: in vivo, human; conditions: for AUC0-t / Cmax / tmax: plasma; for AUC0-t / Cmax: mean (SD); for circulating OCA metabolites other than glyco-OCA and tauro-OCA: metabolite profiling of radioactivity, mass spectrometry, authentic standards
From the text: Part 2 also evaluated the extent of distribution of total radioactivity into blood cells, and identified metabolites accounting for more than 10% of circulating total radioactivity. The concentrations of total radioactivity and total OCA in plasma over time are shown in FIG. 16 (Note: Total OCA calculated as sum of OCA, glyco-OCA, and tauro-OCA concentrations at each time point, glyco-OCA, and tauro-OCA concentrations at each time point expressed as mass equivalents of OCA) and FIG. 17 (Note: Total OCA calculated as sum of OCA, glyco-OCA, and tauro-OCA concentrations at each time point, glyco-OCA, and tauro-OCA concentrations at each time point expressed as mass equivalents of OCA. Units for total radioactivity are mass equivalent to OCA (i.e. ng-eq OCA/mL)). […] Two additional OCA metabolites were identified: OCA-3 glucuronide and OCA-24 glucuronide, based on the metabolite profiling of radioactivity, mass spectrometry, and authentic standards for the glucuronide metabolites. […] Following Cmax, OCA concentration declined rapidly within the first 4 hours. The maximum exposure of total OCA, including the conjugates, occurred after meals, consistent with gallbladder release and enterohepatic recirculation, leading to exposure levels being observed over the approximately 4-week sampling period.

[4] = molecular target: T1, farnesoid X receptor (FXR) (Homo sapiens, UniProt Q96RI1); conditions: background statement; cited from earlier work
T1 sequence (Q96RI1 1-486): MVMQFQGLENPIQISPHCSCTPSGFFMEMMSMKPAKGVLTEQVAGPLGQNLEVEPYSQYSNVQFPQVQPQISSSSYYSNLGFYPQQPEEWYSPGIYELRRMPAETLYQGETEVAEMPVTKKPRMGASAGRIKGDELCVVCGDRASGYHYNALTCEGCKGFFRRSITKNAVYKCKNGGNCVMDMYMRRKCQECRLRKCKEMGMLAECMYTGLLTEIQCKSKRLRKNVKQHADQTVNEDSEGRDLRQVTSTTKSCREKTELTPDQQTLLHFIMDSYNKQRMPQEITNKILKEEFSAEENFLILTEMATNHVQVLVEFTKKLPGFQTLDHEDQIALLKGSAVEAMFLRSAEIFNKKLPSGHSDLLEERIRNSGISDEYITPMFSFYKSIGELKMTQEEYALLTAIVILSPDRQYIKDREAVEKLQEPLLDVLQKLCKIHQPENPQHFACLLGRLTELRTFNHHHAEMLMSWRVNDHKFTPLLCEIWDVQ

[5] = rat; single oral administration of [14C] OCA
From the text: Preclinical mass balance and radiolabeled single dose PK studies in the rat have examined biliary, urinary, and fecal excretion of OCA and its metabolites.

[6] = Clinical study Part 2: mass balance recovery of radioactivity in urine and feces after 25 mg oral [14C]-OCA; format: in vivo, human
Experimental: Part 2 also evaluated the extent of distribution of total radioactivity into blood cells, and identified metabolites accounting for more than 10% of circulating total radioactivity. The mean cumulative recovery (cumulative % Ae (Amount excreted)) of radioactivity in the urine and feces of subjects receiving oral [^14C]-OCA is shown in FIG. 18. […] The majority of drug-related material in the feces was recovered within 552 hours of dosing with investigational product. In Part 2 (Mass Balance), the mass balance data confirmed that the primary elimination route of OCA is through the feces. A mean of 87% of administered radioactivity was recovered from the feces over the entire collection period, and a minor percentage (<3%) was recovered from the urine.

[7] = Clinical study Part 1, Regimen B: IV plasma PK of 100 μg microtracer dose of [14C]-OCA; format: in vivo, human
Experimental: The objectives of this study were to determine the absolute bioavailability of OCA, and evaluate the absorption, distribution, metabolism, and excretion of OCA in healthy male subjects. […] Mean plasma concentrations of total radioactivity are shown in FIG. 12, and of [^14C]-OCA in FIG. 13. The highest concentration of radioactivity in plasma was measured after completion of the IV dose, and the concentrations of OCA declined rapidly within 4 hours. After the initial decline, a low-level, prolonged profile of OCA and total radioactivity was observed, as expected due to enterohepatic recirculation.

[8] = plasma, single oral dose 25 mg OCA tablet, mean (SD), N = 5
[9] = plasma, single oral dose 25 mg OCA tablet, median and range, N = 5
[10] = 25 mg oral dose of [14C]-OCA, N = 8
[11] = 25 mg oral dose of [14C]-OCA, median and range, N = 8
[12] = by 504 hours postdose, single oral 25 mg [14C]-OCA
[13] = over the entire collection period
[14] = male, human, plasma [14C]-OCA, 15 minute IV infusion of 100 μg [14C]-OCA, mean (SD), N = 5

## CC[C@H]1[C@@H](O)[C@@H]2[C@H](CC[C@]3(C)[C@@H]([C@H](C)CCC(=O)NCC(=O)O)CC[C@@H]23)[C@@]2(C)CC[C@@H](O)C[C@@H]12 [Glyco-OCA]
[1]
  pharmacological action compared with parent drug (OCA): equipotent
[2]; [8]
  AUC0-t: 1540 (480.7) hours*ng/mL
  Cmax: 57.4 (24.43) ng/mL
[2]; [9]
  tmax: 8.000 (2.00, 36.00) h
[3]; [10]
  AUC0-t: 4690 (2232) ^ hours*ng/mL
  Cmax: 73.8 (39.96) ng/mL
[3]; [11]
  tmax: 10.0 (3.00, 36.0) h

## CC[C@H]1[C@@H](O)[C@@H]2[C@H](CC[C@]3(C)[C@@H]([C@H](C)CCC(=O)O)CC[C@@H]23)[C@@]2(C)CC[C@@H](O)C[C@@H]12 [OCA, 3α,7α-dihydroxy-6α-ethyl-5β-cholan-24-oic acid]
[4]
  FXR activity: highly potent FXR modulator
[2]; male, human, plasma, oral, 25 mg, ratio of dose normalized AUC oral 25 mg OCA / IV 100 μg [14C]-OCA, mean (SD), N = 5, read-out: F (absolute bioavailability)
  bioavailability: ~17%
[2]; male, human, plasma, oral 25 mg OCA, read-out: median tmax
  tmax: 30 min
[2]; male, human, plasma, single oral dose 25 mg OCA tablet, mean (SD), N = 5, read-out: AUC0-t
  AUC0-t: 144 ng·h/mL
[2]; male, human, plasma, single oral dose 25 mg OCA tablet, mean (SD), N = 5, read-out: Cmax
  Cmax: 80.9 ng/mL
[2]; on average, after the decline within 4 hours, up to 72 hours post-dose, oral 25 mg OCA
  subsequent OCA plasma concentrations relative to Cmax: less than 10%
[2]; oral 25 mg OCA
  contribution of parent to overall exposure of total OCA (AUC0-t): less than 10%
[2]; [9]
  tmax: 0.500 (0.50, 2.03) h
[3]; male, human, 25 mg oral [14C]-OCA, read-out: median tmax
  tmax: 75 min
[3]; male, human, 25 mg oral dose of [14C]-OCA, N = 8, read-out: AUC0-t
  AUC0-t: 475 ng·h/mL
[3]; male, human, 25 mg oral dose of [14C]-OCA, N = 8, read-out: Cmax
  Cmax: 63.7 ng/mL
[3]; [11]
  tmax: 1.25 (0.750, 2.50) h

## CC[C@H]1[C@@H](O)C2C3CC[C@H]([C@H](C)CCC(=O)O)[C@@]3(C)CCC2[C@@]2(C)CC[C@@H](O[C@@H]3O[C@H](C(=O)O)[C@@H](O)[C@H](O)[C@H]3O)C[C@@H]12 (some centres unmarked) [OCA-3 glucuronide, OCA-3-O-Glucuronide]
[3]
  circulating OCA metabolites other than glyco-OCA and tauro-OCA: identified

## CC[C@H]1[C@@H](O)[C@H]2C3CC[C@H]([C@H](C)CCC(=O)O[C@@H]4O[C@H](C(=O)O)[C@@H](O)[C@H](O)[C@H]4O)[C@@]3(C)CC[C@@H]2[C@@]2(C)CC[C@@H](O)C[C@@H]12 (some centres unmarked) [OCA-24 glucuronide]
[3]
  circulating OCA metabolites other than glyco-OCA and tauro-OCA: identified

## CC[C@H]1[C@@H](O)[C@@H]2[C@H](CC[C@]3(C)[C@@H]([C@H](C)CCC(=O)NCCS(=O)(=O)O)CC[C@@H]23)[C@@]2(C)CC[C@@H](O)C[C@@H]12 [Tauro-OCA]
[1]
  pharmacological action compared with parent drug (OCA): equipotent
[2]; [8]
  AUC0-t: 624 (159.6) hours*ng/mL
  Cmax: 23.1 (7.412) ^ ng/mL
[2]; [9]
  tmax: 36.000 (2.00, 60.00) h
[3]; [10]
  AUC0-t: 2550 (2155) ^ hours*ng/mL
  Cmax: 24.4 (14.21) ng/mL
[3]; [11]
  tmax: 9.03 (2.50, 36.0) h

## CC[C@H]1[C@@H](O)C2C3CC[C@H]([C@H](C)CCC(=O)O)[C@@]3(C)CCC2[C@@]2(C)CC[C@@H](O)C[C@@H]12 (some centres unmarked) [[^14C]-OCA, [^14C]OCA]
[5]
  route of excretion of radioactivity: excreted mainly in the feces
[6]; at 1152 hours
  total radioactivity administered recovered from feces, mean: 87.0%
[6]; [12]
  radioactivity recovered from feces, average: 72.3%
  total radioactivity administered recovered from urine and feces, mean: 75.1%
[6]; [13]
  administered radioactivity recovered from the feces, mean: 87%
  administered radioactivity recovered from the urine: < 3%
[6]; single oral 25 mg [14C]-OCA
  total radioactivity recovered from the urine, average: 2.83%
[7]; 15 minute IV infusion of 100 μg [14C]-OCA, mean (SD), N = 5
  Vs (volume of distribution): 618 (341.9) L
[7]; male, human, plasma, 15 minute IV infusion of 100 μg [14C]-OCA, mean (SD), N = 5, read-out: CL (total plasma clearance) (converted)
  clearance: 417 mL/min
[7]; male, human, plasma, 15 minute IV infusion of 100 μg [14C]-OCA, mean (SD), N = 5, read-out: Vss (volume of distribution at steady state)
  Vd: 210 L
[7]; [14]
  AUC0-t: 3.86 ng·h/mL
  Cmax: 9.71 ng/mL
[7]; over 72 hours, IV 100 μg [14C]-OCA
  AUC0-t of [14C]-OCA as share of the total radioactive exposure: approximately 20%

— patent US11472831B2, “Isotopically labeled bile acid derivatives” (Intercept Pharmaceuticals, Inc., priority 2017, dated 2022)
